# Assay results: ChEMBL document CHEMBL1201862, “PubChem BioAssay data set” (2004)
# Activity calls are given as the source filed them.
# How the values were obtained:
# [1] = molecular target: T1, Alkaline phosphatase, tissue-nonspecific isozyme (Homo sapiens, UniProt P05186)
# T1 sequence (P05186 whole entry): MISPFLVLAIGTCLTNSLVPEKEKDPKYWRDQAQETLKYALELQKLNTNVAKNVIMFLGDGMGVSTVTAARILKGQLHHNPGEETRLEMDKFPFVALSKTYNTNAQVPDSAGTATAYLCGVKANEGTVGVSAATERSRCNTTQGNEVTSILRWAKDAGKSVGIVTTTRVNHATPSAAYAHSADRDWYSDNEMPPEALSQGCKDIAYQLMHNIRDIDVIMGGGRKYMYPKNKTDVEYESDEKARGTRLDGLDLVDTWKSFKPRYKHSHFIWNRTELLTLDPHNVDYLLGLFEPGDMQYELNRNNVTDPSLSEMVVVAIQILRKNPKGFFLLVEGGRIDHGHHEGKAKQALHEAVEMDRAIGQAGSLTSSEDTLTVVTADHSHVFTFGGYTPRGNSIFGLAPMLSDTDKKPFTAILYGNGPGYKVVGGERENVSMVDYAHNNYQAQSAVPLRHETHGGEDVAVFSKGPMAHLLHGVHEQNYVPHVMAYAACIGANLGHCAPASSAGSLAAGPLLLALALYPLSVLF
# [2] = cAMP pathway inhibition in counterscreen cell line – TR-FRET cAMP detection, counter-screen for MC4R biased antagonist project, dose response (AID 602305); type: functional, cell-based;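 note: U2OS cells stimulated with forskolin near its EC80 as the cAMP inducer; potency is for inhibition of forskolin-stimulated cAMP signaling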
# [3] = microbe, parasite or virus in culture; type: functional; conditions: Mycobacterium tuberculosis
# BJ [4] = assay: BJ-TERT-LT-ST fibroblast viability loss – cell-based, RAS-independent, luminescence, dose response (AID 1935); type: functional; conditions: Homo sapiens;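 note: BJ fibroblasts immortalized with TERT plus LT and ST oncogenes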
# [5] = molecular target: T2, Sphingosine 1-phosphate receptor 4 (Homo sapiens, UniProt O95977); assay: Fluorescence dose response cell-based high throughput screening assay for antagonists of the Sphingosine 1-Phosphate Receptor 4 (S1P4). [Related pubchem assays: 1524 (Confirmation in triplicates.), 1510 (Primary screen.)]; type: functional
# T2 sequence (O95977 whole entry): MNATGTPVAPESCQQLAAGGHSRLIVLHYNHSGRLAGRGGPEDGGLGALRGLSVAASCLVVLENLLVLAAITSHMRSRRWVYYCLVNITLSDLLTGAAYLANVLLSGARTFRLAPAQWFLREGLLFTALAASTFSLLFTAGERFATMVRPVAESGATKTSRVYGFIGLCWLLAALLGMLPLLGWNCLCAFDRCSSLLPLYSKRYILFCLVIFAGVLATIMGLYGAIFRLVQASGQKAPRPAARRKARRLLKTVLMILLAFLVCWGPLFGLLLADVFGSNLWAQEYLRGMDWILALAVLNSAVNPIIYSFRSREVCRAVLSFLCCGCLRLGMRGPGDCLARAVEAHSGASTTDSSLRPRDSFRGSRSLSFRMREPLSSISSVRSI
# BJ [6] = assay: cells; type: functional, cell-based; conditions: Homo sapiens
# [7] = molecular target: T3, Replicative DNA helicase DnaB (Mycobacterium tuberculosis, UniProt P9WMR3); assay: DnaB intein splicing inhibitors, dose response, biochemical, cell-free fluorescence (AID 449749); type: functional
# T3 sequence (P9WMR3 whole entry): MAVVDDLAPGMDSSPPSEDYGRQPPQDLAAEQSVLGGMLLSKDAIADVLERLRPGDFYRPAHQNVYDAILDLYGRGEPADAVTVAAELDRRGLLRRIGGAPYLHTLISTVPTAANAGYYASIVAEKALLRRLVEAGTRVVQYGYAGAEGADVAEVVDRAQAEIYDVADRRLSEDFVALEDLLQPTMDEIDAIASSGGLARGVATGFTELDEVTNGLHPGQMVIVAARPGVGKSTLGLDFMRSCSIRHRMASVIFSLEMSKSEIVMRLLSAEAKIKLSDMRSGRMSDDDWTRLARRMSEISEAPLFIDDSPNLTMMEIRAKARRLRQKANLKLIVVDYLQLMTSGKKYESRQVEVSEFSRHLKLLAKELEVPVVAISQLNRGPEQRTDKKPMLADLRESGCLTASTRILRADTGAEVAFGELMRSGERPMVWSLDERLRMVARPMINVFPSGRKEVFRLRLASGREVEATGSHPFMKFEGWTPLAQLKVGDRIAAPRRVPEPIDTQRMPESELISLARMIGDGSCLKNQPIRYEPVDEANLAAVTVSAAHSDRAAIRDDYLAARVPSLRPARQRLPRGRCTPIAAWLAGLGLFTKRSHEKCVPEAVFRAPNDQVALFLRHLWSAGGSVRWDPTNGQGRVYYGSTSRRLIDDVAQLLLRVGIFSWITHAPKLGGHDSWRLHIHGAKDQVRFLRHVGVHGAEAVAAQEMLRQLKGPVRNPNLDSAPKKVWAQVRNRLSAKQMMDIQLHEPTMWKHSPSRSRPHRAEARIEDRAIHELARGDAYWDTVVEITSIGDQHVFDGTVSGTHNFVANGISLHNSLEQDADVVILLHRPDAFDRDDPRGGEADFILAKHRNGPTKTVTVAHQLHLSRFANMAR
# Protein RecA = molecular target: T4, Protein RecA (Mycobacterium tuberculosis, UniProt P9WHJ3); assay: Fluorescence Cell-Free Homogeneous Dose Retest to Identify Inhibitors of RecA-Intein Splicing Activity. [Related pubchem assays (depositor defined):AID2097, AID2223, AID489010, AID492950]; type: functional
# T4 sequence (P9WHJ3 whole entry): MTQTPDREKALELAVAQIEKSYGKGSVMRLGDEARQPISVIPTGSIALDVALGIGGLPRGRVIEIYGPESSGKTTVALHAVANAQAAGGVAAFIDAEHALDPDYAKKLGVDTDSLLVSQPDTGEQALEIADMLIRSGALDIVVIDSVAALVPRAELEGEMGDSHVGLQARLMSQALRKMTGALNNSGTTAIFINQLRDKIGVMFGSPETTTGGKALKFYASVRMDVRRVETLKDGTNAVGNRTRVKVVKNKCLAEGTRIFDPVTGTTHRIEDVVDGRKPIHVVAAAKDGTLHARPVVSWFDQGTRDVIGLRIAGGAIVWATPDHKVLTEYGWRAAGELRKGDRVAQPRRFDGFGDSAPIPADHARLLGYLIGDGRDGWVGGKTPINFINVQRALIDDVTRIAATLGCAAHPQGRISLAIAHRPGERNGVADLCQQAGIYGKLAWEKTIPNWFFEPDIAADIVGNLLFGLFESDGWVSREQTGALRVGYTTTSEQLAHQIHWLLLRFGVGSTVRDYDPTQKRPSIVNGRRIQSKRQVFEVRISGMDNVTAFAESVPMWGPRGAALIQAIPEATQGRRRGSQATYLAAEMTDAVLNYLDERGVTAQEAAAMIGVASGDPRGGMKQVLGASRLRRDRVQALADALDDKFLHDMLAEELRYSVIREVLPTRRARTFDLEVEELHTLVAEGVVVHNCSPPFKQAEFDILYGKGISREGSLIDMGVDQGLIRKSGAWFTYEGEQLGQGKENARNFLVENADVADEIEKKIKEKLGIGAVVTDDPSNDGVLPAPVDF
# Melanocortin receptor 4 = Melanocortin receptor 4 (Homo sapiens, UniProt P32245); assay: inhibitors of MC4R cAMP signaling – cell-based, TR-FRET, biased antagonists, dose response (AID 602298); type: functional;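 note: antagonist potency against agonist-stimulated cAMP production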
# BJ [8] = assay: BJ-TERT fibroblast viability loss – cell-based, RAS-independent, luminescence, dose response (AID 1933); type: functional; conditions: Homo sapiens
# [9] = DRD fibroblast viability loss – cell-based, non-viral oncogenic, luminescence, dose response (AID 1934); type: functional; conditions: Homo sapiens
# [10] = molecular target: Sphingosine 1-phosphate receptor 1 (Homo sapiens, UniProt P21453); type: functional;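 note: Tango beta-arrestin reporter U2OS cells stimulated with S1P near its EC80; inhibitor potency meaning antagonism of receptor activation by the natural agonist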
# [11] = molecular target: T5, Neuropeptide Y receptor type 2 (Homo sapiens, UniProt P49146); type: functional, cell-based;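 for IC50: HEK293 cells expressing the receptor and a CNG channel; stimulus was NPY near EC95 followed by isoproterenol to raise cAMP; antagonist potency measured as restoring cAMP signal that NPY suppresses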
# T5 sequence (P49146 whole entry): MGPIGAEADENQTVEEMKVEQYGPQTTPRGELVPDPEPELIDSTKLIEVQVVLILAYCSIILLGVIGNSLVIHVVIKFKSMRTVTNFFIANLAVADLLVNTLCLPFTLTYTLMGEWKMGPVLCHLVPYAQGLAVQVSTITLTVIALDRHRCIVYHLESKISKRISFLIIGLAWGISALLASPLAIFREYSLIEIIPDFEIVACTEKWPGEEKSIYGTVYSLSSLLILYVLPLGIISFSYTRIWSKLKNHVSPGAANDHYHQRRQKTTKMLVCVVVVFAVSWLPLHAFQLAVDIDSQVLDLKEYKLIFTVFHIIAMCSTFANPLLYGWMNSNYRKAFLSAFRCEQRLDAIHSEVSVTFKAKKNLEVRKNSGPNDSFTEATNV
# [12] = molecular target: T6, Neuropeptide Y receptor type 1 (Homo sapiens, UniProt P25929); type: functional;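 for IC50: HEK293 cells with a CNG channel challenged with NPY then isoproterenol; potency as antagonist that reverses NPY suppression of cAMP signal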
# T6 sequence (P25929 whole entry): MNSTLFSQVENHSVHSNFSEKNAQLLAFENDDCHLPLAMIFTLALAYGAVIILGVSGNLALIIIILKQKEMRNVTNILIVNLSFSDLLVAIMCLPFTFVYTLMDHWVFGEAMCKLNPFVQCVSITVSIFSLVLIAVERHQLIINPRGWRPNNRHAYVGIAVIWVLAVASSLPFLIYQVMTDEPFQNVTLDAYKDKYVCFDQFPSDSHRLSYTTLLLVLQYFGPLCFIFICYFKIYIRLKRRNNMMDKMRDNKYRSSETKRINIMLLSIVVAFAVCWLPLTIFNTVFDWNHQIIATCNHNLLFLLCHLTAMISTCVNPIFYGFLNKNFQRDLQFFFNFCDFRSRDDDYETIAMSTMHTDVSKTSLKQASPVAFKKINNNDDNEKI
# Bcl-2-like protein 10 = Bcl-2-like protein 10 (Homo sapiens, UniProt Q9HD36); assay: Concentration-response of Bcl-B inhibitors by biochemical FP with TR3 (AID 1243); type: functional
# [13] = A Cell Based Secondary Assay To Explore Cytotoxicity of Compounds that Sensitize Mycobacterium Tuberculosis to Beta-Lactam Antibiotics.; type: functional
# [14] = CCR5-tropic HIV-1 fusion blockers – cell-based, CCR5-tropic Env, dose response (AID 2279); type: functional
# [15] = molecular target: T7, Induced myeloid leukemia cell differentiation protein Mcl-1 (Homo sapiens, UniProt Q07820); type: functional
# Bcl-2-like protein 1 = Bcl-2-like protein 1 (Homo sapiens, UniProt Q07817); assay: blockers of BCLXL peptide binding – biochemical, fluorescence polarization, 1536-well, selectivity assay for MCL1 inhibitor project, dose response (AID 2218)
# [16] = molecular target: T7, Induced myeloid leukemia cell differentiation protein Mcl-1; assay: blockers of MCL1 binding to BIM peptide – biochemical, fluorescence polarization, BIM-BH3 peptide, 1536-well, dose response (AID 2217)
# HEK293 = assay: Fluorescence-based counterscreen for potentiators or agonists of NPY-Y2: cell-based high-throughput dose response assay to identify inhibitors of cyclic nucleotide gated ion channel (CNGC) activity. In this assay, the parental HEK293 cell line transfected with a cyclic-nucleotide gated ion channel (CNGC)-based cAMP sensor is used to measure inhibition of isoproterenol-induced CNGC activity by test compound.; type: functional; conditions: Homo sapiens;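 note: stimulus is 1 µM isoproterenol at EC100 plus PDE inhibitor Ro 20-1724 at 25 µM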
# [17] = molecular target: T6, Neuropeptide Y receptor type 1; assay: Fluorescence-based counterscreen for agonists of NPY-Y2: cell-based high-throughput dose response assay for agonists of NPY-Y1.; type: functional
# [18] = molecular target: T5, Neuropeptide Y receptor type 2; assay: Fluorescence-based cell-based high-throughput dose response assay for agonists of NPY-Y2. [Related pubchem assays: 1703 (Screening assay (CNGC inhibitors).), 1359 (Screening assay (NPY-Y2 potentiators or agonists).), 1304 (Screening assay (NPY-Y1 potentiators or agonists).), 1710 (Screening assay (NPY-Y2 agonists).), 1791 (Summary AID.)]; type: functional
# [19] = mitochondrial function rescue without frataxin homolog – Friedreich's ataxia, plus single-dose screen, dose response (AID 1465); type: functional;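 note: yeast depleted of Yfh1p frataxin homolog grown on glycerol needing respiration; WST-1 tetrazolium dye reduction as measure of cellular dehydrogenase metabolic activity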
# [20] = molecular target: Heat shock 70 kDa protein 1A (Homo sapiens, UniProt P0DMV8); assay: inhibition of Hsp70 binding activity – biochemical, fluorescence polarization, SAR follow-up (AID 1072)
# [21] = molecular target: Heat shock cognate 71 kDa protein (Homo sapiens, UniProt P11142); assay: In Vitro Hsc70 Dose Response Fluorescence Polarization Assay. [Related pubchem assays: 1072 ]
# [22] = molecular target: Glyceraldehyde-3-phosphate dehydrogenase (Homo sapiens, UniProt P04406)
# Glyceraldehyde-3-phosphate dehydrogenase, sequence (P04406 whole entry): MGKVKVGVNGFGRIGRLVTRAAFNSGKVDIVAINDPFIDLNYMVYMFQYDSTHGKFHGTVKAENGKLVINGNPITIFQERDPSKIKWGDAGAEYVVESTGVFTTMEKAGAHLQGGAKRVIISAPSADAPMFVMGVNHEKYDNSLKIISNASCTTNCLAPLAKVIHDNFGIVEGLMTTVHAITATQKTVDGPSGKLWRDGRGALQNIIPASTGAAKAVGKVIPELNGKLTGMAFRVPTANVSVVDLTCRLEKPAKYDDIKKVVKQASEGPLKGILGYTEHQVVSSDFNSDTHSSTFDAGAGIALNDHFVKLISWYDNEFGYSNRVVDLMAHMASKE
# T7 sequence (Q07820 whole entry): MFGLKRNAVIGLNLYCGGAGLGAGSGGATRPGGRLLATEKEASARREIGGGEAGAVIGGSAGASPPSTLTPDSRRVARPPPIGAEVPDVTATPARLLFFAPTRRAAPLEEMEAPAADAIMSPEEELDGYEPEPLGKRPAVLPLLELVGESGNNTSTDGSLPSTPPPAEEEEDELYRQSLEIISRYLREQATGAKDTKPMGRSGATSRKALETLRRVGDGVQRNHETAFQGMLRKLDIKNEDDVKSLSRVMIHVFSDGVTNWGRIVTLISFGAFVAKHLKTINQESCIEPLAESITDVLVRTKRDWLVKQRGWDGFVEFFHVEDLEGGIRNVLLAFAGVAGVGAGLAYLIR
# Bcl-2-like protein 10, sequence (Q9HD36 whole entry): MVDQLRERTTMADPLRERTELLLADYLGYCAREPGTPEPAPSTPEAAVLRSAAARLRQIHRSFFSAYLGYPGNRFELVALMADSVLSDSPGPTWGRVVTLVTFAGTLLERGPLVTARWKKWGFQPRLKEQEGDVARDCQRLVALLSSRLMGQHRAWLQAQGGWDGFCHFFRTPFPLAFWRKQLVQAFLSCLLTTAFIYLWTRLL
# Melanocortin receptor 4, sequence (P32245 whole entry): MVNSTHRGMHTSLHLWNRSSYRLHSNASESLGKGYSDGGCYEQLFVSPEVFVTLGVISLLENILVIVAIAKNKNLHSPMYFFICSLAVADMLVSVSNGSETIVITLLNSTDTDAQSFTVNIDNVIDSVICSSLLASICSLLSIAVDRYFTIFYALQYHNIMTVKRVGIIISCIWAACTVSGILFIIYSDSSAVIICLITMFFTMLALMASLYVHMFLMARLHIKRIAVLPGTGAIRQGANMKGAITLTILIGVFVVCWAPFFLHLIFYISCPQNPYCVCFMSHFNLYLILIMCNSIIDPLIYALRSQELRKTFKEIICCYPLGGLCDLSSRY
# Bcl-2-like protein 1, sequence (Q07817 whole entry): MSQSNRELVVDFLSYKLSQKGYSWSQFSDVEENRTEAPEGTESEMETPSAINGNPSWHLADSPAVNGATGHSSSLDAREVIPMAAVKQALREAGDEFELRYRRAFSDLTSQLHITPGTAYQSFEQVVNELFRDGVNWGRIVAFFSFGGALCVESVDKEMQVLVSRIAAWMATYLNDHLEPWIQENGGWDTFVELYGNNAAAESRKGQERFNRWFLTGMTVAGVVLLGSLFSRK
# Heat shock cognate 71 kDa protein, sequence (P11142 whole entry): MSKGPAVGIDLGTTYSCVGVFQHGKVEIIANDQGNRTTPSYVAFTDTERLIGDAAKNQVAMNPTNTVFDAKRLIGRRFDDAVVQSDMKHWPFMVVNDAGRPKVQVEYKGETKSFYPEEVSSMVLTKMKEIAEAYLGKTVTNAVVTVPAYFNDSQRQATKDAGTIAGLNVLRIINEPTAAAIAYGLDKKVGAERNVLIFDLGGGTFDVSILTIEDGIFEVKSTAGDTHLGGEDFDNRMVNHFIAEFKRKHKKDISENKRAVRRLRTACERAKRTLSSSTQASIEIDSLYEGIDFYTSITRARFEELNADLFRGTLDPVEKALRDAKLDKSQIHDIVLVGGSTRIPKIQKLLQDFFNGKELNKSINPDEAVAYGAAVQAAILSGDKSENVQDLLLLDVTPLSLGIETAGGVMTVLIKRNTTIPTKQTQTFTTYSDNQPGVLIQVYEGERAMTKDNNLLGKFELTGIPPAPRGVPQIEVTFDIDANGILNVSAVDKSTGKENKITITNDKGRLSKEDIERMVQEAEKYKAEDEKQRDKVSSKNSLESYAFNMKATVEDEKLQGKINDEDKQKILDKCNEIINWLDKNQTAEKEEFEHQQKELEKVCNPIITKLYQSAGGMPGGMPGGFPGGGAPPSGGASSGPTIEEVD
# Sphingosine 1-phosphate receptor 1, sequence (P21453 whole entry): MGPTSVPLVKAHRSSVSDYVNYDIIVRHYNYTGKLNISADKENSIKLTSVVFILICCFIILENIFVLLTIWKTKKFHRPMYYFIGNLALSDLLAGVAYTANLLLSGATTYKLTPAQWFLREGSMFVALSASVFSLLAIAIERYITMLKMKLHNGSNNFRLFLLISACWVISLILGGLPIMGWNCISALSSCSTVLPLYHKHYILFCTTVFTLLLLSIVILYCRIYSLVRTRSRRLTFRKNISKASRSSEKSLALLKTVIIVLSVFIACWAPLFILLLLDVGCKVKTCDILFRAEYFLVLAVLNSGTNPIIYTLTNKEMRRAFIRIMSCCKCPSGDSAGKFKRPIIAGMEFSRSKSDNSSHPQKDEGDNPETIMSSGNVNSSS
# Heat shock 70 kDa protein 1A, sequence (P0DMV8 whole entry): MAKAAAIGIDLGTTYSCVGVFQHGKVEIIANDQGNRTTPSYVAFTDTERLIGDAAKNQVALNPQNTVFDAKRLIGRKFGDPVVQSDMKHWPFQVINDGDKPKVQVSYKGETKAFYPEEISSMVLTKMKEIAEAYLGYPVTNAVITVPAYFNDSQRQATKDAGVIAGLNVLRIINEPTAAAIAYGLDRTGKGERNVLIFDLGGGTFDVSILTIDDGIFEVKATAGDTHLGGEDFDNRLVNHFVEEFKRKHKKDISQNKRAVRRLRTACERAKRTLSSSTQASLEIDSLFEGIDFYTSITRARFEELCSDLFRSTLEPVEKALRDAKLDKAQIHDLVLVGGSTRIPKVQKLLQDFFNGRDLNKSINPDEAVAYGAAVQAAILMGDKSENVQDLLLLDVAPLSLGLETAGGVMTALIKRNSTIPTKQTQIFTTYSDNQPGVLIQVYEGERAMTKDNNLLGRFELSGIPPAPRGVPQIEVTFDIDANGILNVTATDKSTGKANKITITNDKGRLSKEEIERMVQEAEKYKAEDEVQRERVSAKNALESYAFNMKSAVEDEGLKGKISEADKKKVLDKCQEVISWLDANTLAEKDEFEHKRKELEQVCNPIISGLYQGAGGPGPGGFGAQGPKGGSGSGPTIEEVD
structure (smiles),measurement,setting,value
CC(C)CN=C(S)NNC(=O)c1ccco1,EC50,[1],73.9 µM (not active)
CC(=O)n1cc(N(C(=O)CCl)c2ccc(Cl)cc2)c2ccccc21,IC50,[2],> 64.5 µM (inactive)
same,CC50,[3],1.08 µM (active)
same,EC50,BJ [4],2.67 µM (active)
same,IC50,[5],0.682 µM (active)
same,EC50,BJ [6],2.5 µM (inconclusive)
same,AC50,[7],1.27 µM (active)
same,EC50,Protein RecA,0.346 µM (active)
same,IC50,Melanocortin receptor 4,> 64.5 µM (inactive)
same,EC50,BJ [8],0.198 µM (active)
same,EC50,[9],1.37 µM (inconclusive)
same,IC50,[10],7.32 µM (active)
Cc1ccc(C)c(NS(=O)(=O)c2cc(C(=O)Nc3ccccc3-c3ccccc3)ccc2Cl)c1,IC50,[11],0.428 µM (active)
same,IC50,[12],> 35 µM (not active)
O=C(O)c1cccc2c1NC(c1cccc(Cl)c1Cl)C1CC=CC21 (centres undefined),EC50,Bcl-2-like protein 10,2.67 µM (active)
O=[N+]([O-])c1cc(Cl)cc(/C=N/NC(=S)Nc2cc(S(=O)(=O)N3CCOCC3)ccc2Cl)c1O,CC50,[13],25.7 µM (active)
same,IC50,[14],25.1 µM (active)
same,IC50,[15],2.19 µM (active)
same,IC50,Bcl-2-like protein 1,> 109 µM (not active)
same,IC50,[16],49.3 µM (not active)
CCCOc1ccc(/C=N/Nc2ccc(C(=O)O)cc2)c(OCCC)c1,EC50,HEK293,11.4 µM (not active)
same,EC50,[17],16.5 µM (not active)
same,EC50,[18],26.3 µM (not active)
"O=C1C=Cc2ccccc2C1=O [1,2-NAPHTHOQUINONE]",EC50,[19],> 100 µM (active)
same,AC50,[7],5.81 µM (active)
same,EC50,Protein RecA,9.13 µM (active)
Nc1ncnc2c1ncn2[C@@H]1O[C@H](COP(=O)(O)OP(=O)(O)OP(=O)(O)O)[C@@H](O)[C@H]1O [ADENOSINE TRIPHOSPHATE],IC50,[20],3.37 µM (active)
same,IC50,[21],17.3 µM (active)
same,IC50,[22],> 100 µM (not active)
